Data published in patent US20250352524A1, “PREVENTION OF METASTATIC OUTGROWTH USING TEAD INHIBITORS” (Georgetown University, priority 2024, published 2025).

Tests used:
THP1 macrophages = assay: qPCR gene expression in THP1 macrophages; assay type: cell-based, human; settings: 1 μM VT107 vs vehicle
Description: To determine if knockdown of TEAD mimicked iTEAD effects, THP1 cells were transduced with shRNAs targeting TEAD 1, 3 and 4 or GFP as a control. Knockdown was confirmed by western blot with a pan TEAD antibody (FIG. 13, Panel A). […] TEAD knockdown in THP1 macrophages decreased protumor inflammatory cytokines CXCL2, 5, and 6 (FIG. 12, Panel C). […] Signaling pathways related to inflammatory diseases, such as rheumatoid arthritis, were decreased (FIG. 12, Panel D), as well as the inflammatory upstream regulators LPS and TNF (FIG. 12, Panel E). The score for M2-like upstream regulators, OSM (Shrivastava et al., 2019) and IL17A (Miller et al., 2020) was decreased by TEAD knockdown yet importantly, IL12 and the immune modulator used to enhance immunotherapy, NC410, scores were increased (Ramos et al., 2021) (FIG. 12, Panel D). Taken together, the response to iTEAD treatment or TEAD knockdown enhanced macrophages interaction with tumor cells and IL12 signaling. The global anti-inflammatory effect and the repression of the M2-like macrophage phenotypes are known to oppose the establishment of a hospitable metastatic niche (McGinnis et al., 2024; Sica et al., 2008; Noy & Pollard, 2014).
Total RNA was extracted from cell lines using a RNeasy Mini Kit (Qiagen, #74104) according to the manufacturer's instructions. cDNA from total RNA was made with the iScript cDNA synthesis kit according to the manufacturer's protocol (Biorad, #170-8891) and qPCR was performed in an iCycler iQ (BioRad) using the iQ SYBR Green Supermix (BioRad, #170-8882).

[1] = tested on: lung resident macrophages; assay: Cytokine array of conditioned media, isolated lung macrophages; assay type: cell-based, C57BL/6 mice
Description: Due to the shifts in immune signaling observed in the lung tissue upon TEAD inhibition (FIG. 9), immune cell populations were first analyzed by flow cytometry in the lungs and spleens of tumor naïve mice. Consistent with the Cibersort analysis of RNA-seq data, there was a decrease in the monocytes population and an increase in the tissue-resident alveolar macrophages (AM) (FIG. 10, Panel A). […] Next, it was sought to determine the specific effects of iTEAD treatment on lung resident versus bone-marrow derived macrophages, as the dynamics of these cell populations are crucial for the establishment of the metastatic niche (Ries et al., 2014; Qian et al., 2011). Macrophages were retrieved from the lungs by isolating F4/80+ cells, a specific marker for murine macrophages, by FACS (fluorescence-activated cell sorting) as well as bone marrow-derived macrophages from the femurs of naïve C57BL/6 mice that were then differentiated in vitro using macrophage colony stimulating factor (M-CSF). Macrophages were treated with 1 μM of VT107 for 24 hours before the conditioned media was collected and analyzed on a cytokine array. […] There was no change in the level of the other cytokines detected (FIG. 10, Panel B).
Cells were grown in their recommended cell culture media and treated with […] VT107 for 24 or 72 hours. Conditioned media was collected and passed through a 0.2 micron PES filter then analyzed on a RayBio® Mouse Cytokine Array (#AAM-TCR-1) according to the manufacture's protocol. The array includes two spots for each cytokine. The luminescence signal was normalized to the positive control on each membrane, then to the vehicle treatment signal of each cytokine.

## VT107
THP1 macrophages
  CD80 gene expression level: increase
  IL12 gene expression level: increase
  expression of YAP/TEAD target genes CTGF, S100Δ8 and S100Δ9: downregulated
THP1 macrophages; listed as iTEAD
  expression of YAP/TEAD target genes CTGF, S100Δ8 and S100Δ9: decreased expression
[1]; 1 μM VT107 24 hours, lung and bone marrow-derived macrophages
  level of the other cytokines detected: no change
[1]; 1 μM VT107 for 24 hours
  secreted IL4: significantly higher level
  secreted IL12: significantly higher level
